Among the data in patent publication US20250049929A1, “NOVEL TETRAHYDROQUINOLINES AND PROTEOLYSIS TARGETING CHIMERA (PROTACS) COMPRISING THEM AS DEGRADERS OF SMARCA” (Boehringer Ingelheim International GmbH, priority 2021, published 2025) are Kd and DC50 values, retold here.

In one test the target is T1, SMARCA2BD (Homo sapiens, UniProt P51531).
T1 construct: the SMARCA2BD prepared at 0.5-0.7 mg/mL in coupling buffer
Put plainly: Binary SMARCA2 binding affinity determination (A2 binary): SMARCA2 SPR binding experiments. On the procedure:
Binary SMARCA2 Binding Affinity Determination (A2 Binary [nM]):
SMARCA2 SPR Binding Experiments
SPR experiments were performed on Biacore 8K or T200 instruments (GE Healthcare). Immobilization of target protein was carried out at 25° C. on a CM5 chip using amine coupling (EDC/NHS, GE Healthcare) in HBS-P+ running buffer, containing 2 mM TCEP, pH 7.4. […] The surface was deactivated using 1 M ethanolamine.
All interaction experiments were performed at 6° C. in running buffer containing 20 mM TRIS, 150 mM potassium chloride, 2 mM magnesium chloride, 2 mM TCEP, 0.005% TWEEN 20, 1% dimethyl sulfoxide; pH 8.3. Sensorgrams from reference surfaces and blank injections were subtracted from the raw data prior to data analysis using Biacore T200 or Biacore 8K evaluation software. Sensorgrams recorded at different compound concentrations in multi-cycle experiments were fitted using a 1:1 interaction model, with a term for mass-transport included.
On the technique in general: Surface plasmon resonance follows binding to a sensor surface in real time, without labels.

The target of a further test is T2, SMARCA2 (Homo sapiens, UniProt P51531).
T2 construct: endogenous in cells; host or cells: RKO cells (CRL-2577, ATCC)
Put plainly: SMARCA2 degradation analysis by imaging in RKO cells (DC50 A2). The format is cell-based. As to conditions: tables 69, 70, 73, 76-78. On the procedure:
(§1) Determination of SMARCA2 and SMARCA4 Degradation (DC50 A2 and A4 [nM])
(§2) Protein Degradation Assays for SMARCA2 and SMARCA4
(§3) For degradation analysis by imaging, 1250 RKO cells (CRL-2577, ATCC) per well were seeded into 60 μL DMEM (Sigma Aldrich) supplemented with 10% FBS (Hyclone) in 384-well flat bottom plates (CellCarrier Ultra, Perkin Elmer) and incubated at 37° C. and 5% CO2 in a humidified atmosphere overnight. Compounds were added the next day using an Access Labcyte Workstation with a Labcyte Echo 550 or 555 acoustic dispenser and incubated with the cells for 4 or 24 h. Cells were fixed by adding 25 μL fixation buffer (7.4% formaldehyde (Sigma Aldrich F8775), 0.2% Triton TX100 (Sigma Aldrich F93443) in PBS) for 15 minutes at room temperature. After aspirating the fixing solution, the cells were washed once with 25 μL PBS and 25 μL of Blocking Buffer (10% Goat Serum in PBS) were added to each well and incubated for 30 minutes. Cells were washed with PBS and incubated with 20 μL mouse anti-Smarca4 (BRG1) antibody (Cell Signaling #52251) or rabbit anti-Smarca2 (BRM) antibody (Sigma Aldrich HPA029981) in blocking solution (PBS with 10% FCS) for ca. 2-4 h at RT. For detection of the nuclei, 25 μL of 5 μg/mL Hoechst 33342 (stock 10 mg/mL in H2O; Invitrogen H1399) were added together with Alexa Fluor 647 goat anti-mouse IgG (Invitrogen A-21235) or Alexa Fluor 488 goat anti-rabbit IgG (Invitrogen A-11034) in blocking solution and incubated for 60 min at RT. The cell layer was washed with 25 μL PBS, the wells were filled with 25 μL PBS and the plates sealed with an adhesive sheet. The mean intensity at 488 or 647 nm in the nucleus was measured using an Opera Phenix Plus High-Content Screening System (Perkin Elmer), values were normalized to the background and DMSO control and DC50 values were calculated and analyzed using a four-parametric logistic model.

The target in the next test is T3, SMARCA4 (Homo sapiens, UniProt P51532).
T3 construct: endogenous in cells; host or cells: RKO cells (CRL-2577, ATCC)
Put plainly: SMARCA4 degradation analysis by imaging in RKO cells (DC50 A4). In kind it is cell-based. The following applies: tables 69, 70, 73, 76-78. The protocol:
as §1, §2, §3

The mark [1] stands for this setting: binary SMARCA2 binding affinity, SPR at 6° C., pH 8.3, read-out: A2 binary.

Read-outs that look alike come from different tables or passages of the source.

T3 sequence (P51532 whole entry): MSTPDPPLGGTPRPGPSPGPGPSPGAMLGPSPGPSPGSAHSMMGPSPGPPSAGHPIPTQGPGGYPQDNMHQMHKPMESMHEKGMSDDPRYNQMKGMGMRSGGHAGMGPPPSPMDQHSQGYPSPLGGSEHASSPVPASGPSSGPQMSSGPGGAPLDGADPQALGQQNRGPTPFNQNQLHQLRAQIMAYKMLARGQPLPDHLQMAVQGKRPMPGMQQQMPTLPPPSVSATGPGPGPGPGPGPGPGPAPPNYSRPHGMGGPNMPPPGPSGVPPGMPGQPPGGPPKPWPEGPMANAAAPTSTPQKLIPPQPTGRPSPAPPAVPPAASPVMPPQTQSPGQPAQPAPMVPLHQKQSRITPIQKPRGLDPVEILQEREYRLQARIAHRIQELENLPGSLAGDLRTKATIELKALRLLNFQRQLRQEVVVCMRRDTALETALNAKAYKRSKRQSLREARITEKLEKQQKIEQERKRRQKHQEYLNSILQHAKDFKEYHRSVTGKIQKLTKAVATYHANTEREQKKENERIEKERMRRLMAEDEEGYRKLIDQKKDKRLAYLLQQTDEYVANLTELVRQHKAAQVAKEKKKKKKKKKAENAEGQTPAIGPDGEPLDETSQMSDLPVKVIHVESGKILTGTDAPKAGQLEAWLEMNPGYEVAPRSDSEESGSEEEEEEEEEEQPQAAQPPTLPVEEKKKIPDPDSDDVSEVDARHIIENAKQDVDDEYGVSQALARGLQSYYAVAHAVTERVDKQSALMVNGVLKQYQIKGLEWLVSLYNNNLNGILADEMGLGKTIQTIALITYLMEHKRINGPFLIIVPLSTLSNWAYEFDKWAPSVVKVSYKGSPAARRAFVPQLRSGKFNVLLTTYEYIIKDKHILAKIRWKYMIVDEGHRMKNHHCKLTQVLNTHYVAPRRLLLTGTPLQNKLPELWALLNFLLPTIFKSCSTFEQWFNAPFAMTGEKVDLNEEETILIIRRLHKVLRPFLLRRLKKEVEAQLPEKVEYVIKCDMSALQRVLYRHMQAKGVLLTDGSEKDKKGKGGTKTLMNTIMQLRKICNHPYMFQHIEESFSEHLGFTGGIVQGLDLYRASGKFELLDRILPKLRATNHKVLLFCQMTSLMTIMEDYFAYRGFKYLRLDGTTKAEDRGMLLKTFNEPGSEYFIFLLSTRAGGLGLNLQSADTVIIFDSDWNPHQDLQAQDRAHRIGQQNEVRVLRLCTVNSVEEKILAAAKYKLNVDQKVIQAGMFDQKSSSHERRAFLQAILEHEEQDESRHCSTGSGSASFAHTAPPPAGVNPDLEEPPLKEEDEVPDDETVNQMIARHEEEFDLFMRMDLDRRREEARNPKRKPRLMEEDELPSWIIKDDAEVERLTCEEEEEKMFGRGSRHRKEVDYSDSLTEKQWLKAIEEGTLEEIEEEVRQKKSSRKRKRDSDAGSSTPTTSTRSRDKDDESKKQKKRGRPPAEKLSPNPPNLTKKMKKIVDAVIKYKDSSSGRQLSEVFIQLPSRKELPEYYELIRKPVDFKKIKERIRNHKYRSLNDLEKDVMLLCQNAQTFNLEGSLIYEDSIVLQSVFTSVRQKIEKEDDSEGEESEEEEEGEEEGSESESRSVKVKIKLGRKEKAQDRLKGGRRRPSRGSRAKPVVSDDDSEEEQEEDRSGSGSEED
T1 sequence (P51531 1373-1493 isoform P51531-2 limits assumed): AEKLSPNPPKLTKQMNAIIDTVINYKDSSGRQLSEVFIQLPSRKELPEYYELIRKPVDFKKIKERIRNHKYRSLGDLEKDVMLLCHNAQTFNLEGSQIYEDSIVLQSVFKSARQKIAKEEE
T2 sequence (P51531 whole entry): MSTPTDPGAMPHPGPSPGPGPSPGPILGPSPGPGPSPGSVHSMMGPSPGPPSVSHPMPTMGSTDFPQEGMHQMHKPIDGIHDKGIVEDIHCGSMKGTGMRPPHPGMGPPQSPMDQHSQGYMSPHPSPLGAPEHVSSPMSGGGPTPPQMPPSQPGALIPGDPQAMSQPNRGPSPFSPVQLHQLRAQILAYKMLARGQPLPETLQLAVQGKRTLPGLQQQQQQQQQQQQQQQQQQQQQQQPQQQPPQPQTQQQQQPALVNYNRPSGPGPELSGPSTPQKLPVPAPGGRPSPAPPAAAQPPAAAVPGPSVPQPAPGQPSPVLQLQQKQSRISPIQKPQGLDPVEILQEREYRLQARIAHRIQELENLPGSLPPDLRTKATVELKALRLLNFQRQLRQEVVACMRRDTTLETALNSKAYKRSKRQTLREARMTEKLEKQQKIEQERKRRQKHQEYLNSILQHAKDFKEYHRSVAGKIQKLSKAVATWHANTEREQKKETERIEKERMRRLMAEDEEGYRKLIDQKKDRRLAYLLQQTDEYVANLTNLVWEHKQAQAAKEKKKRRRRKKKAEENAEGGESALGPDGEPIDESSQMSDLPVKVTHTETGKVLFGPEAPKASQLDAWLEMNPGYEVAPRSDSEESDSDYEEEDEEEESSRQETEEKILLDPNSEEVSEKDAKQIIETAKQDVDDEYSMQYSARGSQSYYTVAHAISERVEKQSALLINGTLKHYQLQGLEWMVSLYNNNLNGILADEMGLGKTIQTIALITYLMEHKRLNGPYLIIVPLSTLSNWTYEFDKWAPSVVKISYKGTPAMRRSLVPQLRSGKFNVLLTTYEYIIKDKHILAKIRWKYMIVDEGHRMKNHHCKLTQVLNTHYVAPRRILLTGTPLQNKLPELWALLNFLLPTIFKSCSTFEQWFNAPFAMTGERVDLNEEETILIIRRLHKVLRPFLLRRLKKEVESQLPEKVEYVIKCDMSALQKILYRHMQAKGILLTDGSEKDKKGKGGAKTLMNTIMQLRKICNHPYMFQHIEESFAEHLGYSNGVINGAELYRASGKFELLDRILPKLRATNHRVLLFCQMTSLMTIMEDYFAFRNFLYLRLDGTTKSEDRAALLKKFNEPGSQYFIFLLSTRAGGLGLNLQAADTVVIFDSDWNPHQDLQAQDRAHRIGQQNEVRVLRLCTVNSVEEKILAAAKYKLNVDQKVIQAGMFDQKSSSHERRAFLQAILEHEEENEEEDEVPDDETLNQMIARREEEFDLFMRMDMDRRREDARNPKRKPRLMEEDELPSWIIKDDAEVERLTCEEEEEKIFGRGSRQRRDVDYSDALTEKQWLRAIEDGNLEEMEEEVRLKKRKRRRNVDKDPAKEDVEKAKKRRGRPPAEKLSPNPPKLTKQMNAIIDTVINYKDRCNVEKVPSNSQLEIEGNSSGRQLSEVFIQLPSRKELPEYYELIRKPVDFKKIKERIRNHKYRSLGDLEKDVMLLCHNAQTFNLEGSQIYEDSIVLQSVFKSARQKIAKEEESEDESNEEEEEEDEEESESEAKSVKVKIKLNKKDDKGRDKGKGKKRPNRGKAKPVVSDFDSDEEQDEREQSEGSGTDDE

Regarding `O=c1nc2n(C3CCCC3)c3cc(C4CCNCC4)ccc3n2c2cccc(Br)c12` [Compound 28a, 4-bromo-7-cyclopentyl-9-(4-piperidyl)benzimidazolo[1,2-a]quinazolin-5-one], on SMARCA2BD, the Kd stood at 48 nM.

Regarding `CCn1c2cc(C3CCNCC3)c(OCCOCCOC)cc2n2c3cccc(Br)c3c(=O)nc12` [Compound 28k], the Kd at SMARCA2BD (setting [1]) came out at 45 nM. The same measure, in the same setting: under `N[C@H]1CC[C@H](c2ccc3c(c2)n(C2CCCC2)c2nc(=O)c4c(Br)cccc4n32)CC1` [Compound 28m] stands 29 nM; under `C[C@H]1CNCCN1c1ccc2c(c1)n(C1CCCC1)c1nc(=O)c3c(Br)cccc3n21` [Compound 28o], 40 nM; under `C[C@@H]1CNCCN1c1ccc2c(c1)n(C1CCCC1)c1nc(=O)c3c(Br)cccc3n21` [Compound 28p], 55 nM. Still for that read-out and setting: in the case of `O=c1nc2n(C3CCCC3)c3cc(N4CCNCC4)ccc3n2c2cccc(Br)c12` [Compound 28r] it was 44 nM; in that of `O=c1nc2n(C3CCCC3)c3cc(N4C[C@@H]5C[C@H]4CN5)ccc3n2c2cccc(Br)c12` [Compound 28s], 70 nM; in that of `O=c1nc2n(C3CCCC3)c3cc(C4CCNCC4)c(OC[C@@H]4CCCO4)cc3n2c2cccc(Br)c12` [Compound 28v], 45 nM.

On to `COCCOCCOc1cc2c(cc1C1CCNCC1)n(C1CCCC1)c1nc(=O)c3c(Br)cccc3n21` [Compound 28y], for which the Kd on SMARCA2BD (setting [1]) is 50 nM. On to `CC(C)(C)OC(=O)N1CCC(c2ccc3c(c2)n(C2CCCC2)c2nc(=O)c4c(N)cccc4n32)CC1` [Compound 30a], for which the Kd at SMARCA2BD (setting [1]) is 541 nM. As to `CC(C)(C)OC(=O)Oc1cc2c(cc1C1CCN(C(=O)OC(C)(C)C)CC1)n(C1CCCC1)c1nc(=O)c3c(Br)cccc3n21` [Compound 33a], at SMARCA2BD (setting [1]), the Kd was determined as 157 nM. Broadly, the DC50 is the concentration at which degradation of the target reaches its halfway point. The low end stands for a more potent degrader, the high end for a less potent degrader. Consider `Cc1ncsc1-c1ccc([C@H](CO[C@H](C)CN2CCC(c3ccc4c(c3)n(C3C[C@H](C)[C@@H](C)C3)c3nc(=O)c5c(Br)cccc5n43)CC2)NC(=O)[C@@H]2C[C@@H](O)CN2C(=O)[C@@H](NC(=O)C2(F)CC2)C(C)(C)C)cc1` [Compound 42p], for which the DC50 was 13 nM on SMARCA2 and greater than 833 nM on SMARCA4.

As for `Cc1ncsc1-c1ccc([C@H](CCCN2CCC(c3ccc4c(c3)n(C3CCCC3)c3nc(=O)c5c(Br)cccc5n43)CC2)NC(=O)[C@@H]2C[C@@H](O)CN2C(=O)[C@@H](NC(=O)C2(F)CC2)C(C)(C)C)cc1` [Compound 42q], the DC50 on SMARCA2 worked out at 0.4 nM; at SMARCA4, 1 nM. As to `Cc1ncsc1-c1ccc([C@H](CO[C@H](C)CN2CCC(c3ccc4c(c3)n(C3CCCC3)c3nc(=O)c5c(Cl)cccc5n43)CC2)NC(=O)[C@@H]2C[C@@H](O)CN2C(=O)[C@@H](NC(=O)C2(F)CC2)C23CC4CC(CC(C4)C2)C3)cc1` [Compound 42r], the DC50 was 2 nM at SMARCA2 and 27 nM on SMARCA4. For `Cc1ncsc1-c1ccc([C@H](COCCCCCN2CCC(c3ccc4c(c3)n(C3CCCC3)c3nc(=O)c5c(Br)cccc5n43)CC2)NC(=O)[C@@H]2C[C@@H](O)CN2C(=O)[C@@H](NC(=O)C2(F)CC2)C(C)(C)C)cc1` [Compound 42s], in that order: 0.7 nM and 8 nM. For `Cc1ncsc1-c1ccc([C@H](COCCN2CCC(c3cc4c(cc3OC[C@@H]3CCCO3)n3c5cccc(Br)c5c(=O)nc3n4C3CCCC3)CC2)NC(=O)[C@@H]2C[C@@H](O)CN2C(=O)[C@@H](NC(=O)C2(F)CC2)C(C)(C)C)cc1` [Compound 42t], in that order: 3 nM and 67 nM. For `Cc1ncsc1-c1ccc([C@H](C[C@@H](C)CN2CCC(c3ccc4c(c3)n(C3CCCC3)c3nc(=O)c5c(Br)cccc5n43)CC2)NC(=O)[C@@H]2C[C@@H](O)CN2C(=O)[C@@H](NC(=O)C2(F)CC2)C(C)(C)C)cc1` [Compound 42u], in that order: 0.3 nM and 0.7 nM. On to `Cc1ncsc1-c1ccc([C@H](CO[C@@H](CN2CCC(c3ccc4c(c3)n(C3CCCC3)c3nc(=O)c5c(Br)cccc5n43)CC2)C2CC2)NC(=O)[C@@H]2C[C@@H](O)CN2C(=O)[C@@H](NC(=O)C2(F)CC2)C(C)(C)C)cc1` [Compound 42v], for which the DC50 is 11 nM on SMARCA2 and greater than 833 nM at SMARCA4. Turning to `CCOC(=O)c1ncsc1-c1ccc([C@H](CCCN2CCC(c3ccc4c(c3)n(C3CCCC3)c3nc(=O)c5c(Br)cccc5n43)CC2)NC(=O)[C@@H]2C[C@@H](O)CN2C(=O)[C@@H](NC(=O)C2(F)CC2)C(C)(C)C)cc1` [Compound 42w], the values for the DC50 on SMARCA2 and on SMARCA4 were 11 nM and 36 nM, respectively. On the same counts, the results for `Cc1ncsc1-c1ccc([C@H](CCCN2CCC(c3ccc4c(c3)n(C3CCCC3)c3nc(=O)c5c(N)cccc5n43)CC2)NC(=O)[C@@H]2C[C@@H](O)CN2C(=O)[C@@H](NC(=O)C2(F)CC2)C(C)(C)C)cc1` [Compound 42x] are 0.3 nM and 2 nM.

Regarding `Cc1ncsc1-c1ccc([C@H](CO[C@H](C)CN2CCC(c3ccc4c(c3)n(C3CCCC3)c3nc(=O)c5c(Br)cccc5n43)CC2)NC(=O)[C@@H]2C[C@@H](O)CN2C(=O)[C@@H](NC(=O)C2(N(C)C)CC2)C(C)(C)C)cc1` [Compound 42y], the DC50 was 6 nM on SMARCA2 and 101 nM on SMARCA4. On the same counts, the results for `Cc1ncsc1-c1ccc([C@H](CCCN2CCC(c3cc4c(cc3OCCOCCN3CCOCC3)n3c5cccc(Br)c5c(=O)nc3n4C3CCCC3)CC2)NC(=O)[C@@H]2C[C@@H](O)CN2C(=O)[C@@H](NC(=O)C2(F)CC2)C(C)(C)C)cc1` [Compound 42z] are 20 nM and 41 nM.
